# Results published in ChEMBL document CHEMBL3272169, “10-Hydroxy-4-methyl-2,3,4,5,6,7-hexahydro-1,6-methano-1H-4-benzazonine derivatives (homobenzomorphans) as analgesics” (J Med Chem, 1976).
# Structures can show the parent of a compound that is named as a salt.
# Key:
# Mus musculus = assay: Analgesic Activity in sc dosed albino dd mouse by tail pressure stimuli method; type: functional
# [1] = Acute toxicity in iv dosed albino dd mouse; type: organism-based; settings: in vivo
SMILES,ED50 (Mus musculus) [µmol/kg],LD50 [1] [µmol/kg]
CC(O)C(=O)O.C[C@@H]1C2Cc3ccc(O)cc3[C@@H]1CCN(C)C2,8,153
CC(O)C(=O)O.C[C@H]1C2Cc3ccc(O)cc3[C@@H]1CCN(C)C2,9.9,184
CN1CC[C@]23c4c5ccc(O)c4O[C@H]2[C@@H](O)C=C[C@H]3[C@H]1C5 [MORPHINE HYDROCHLORIDE],4.4,
Br.CN1CC[C@@H]2CC(Cc3ccc(O)cc32)C1,10.7,121
CC(O)C(=O)O.CN1CCC2CC(Cc3ccccc32)C1 (stereo unspecified),53.1,106
Br.C[C@@H]1C2Cc3ccc(O)cc3[C@]1(C)CCN(C)C2,4.1,113
CC(O)C(=O)O.C[C@H]1C2Cc3ccc(O)cc3[C@]1(C)CCN(C)C2,5.2,126
COc1ccc2c3c1O[C@H]1[C@@H](O)C=C[C@H]4[C@@H](C2)N(C)CC[C@@]341 [CODEINE PHOSPHATE],30.7,
CC(O)C(=O)O.CN1CC[C@]2(C)CC(Cc3ccc(O)cc32)C1,7,67
